Measurements as given in ChEMBL document CHEMBL3885861, “Open TG-GATES”.

Organism: Rattus norvegicus
Test: Open TG-GATES - Regimen: Single
Type: toxicity, organism-based, Sprague-Dawley
Parameters: regimen Single, gender Male, age 6 weeks
Conditions: in vivo, po, 50 mg/kg, route gavage, dose level Low; for APTT / Bas / Eos / Fbg / Hb / Ht / Lym / MCH / MCHC / MCV / Mono / Neu / PT / Plat / RBC / Ret / WBC: tissue Blood; for KIDNEY_L / KIDNEY_R / KIDNEY_TOTAL: tissue Kidney; for LIVER: tissue Liver; for A/G / ALP / ALT / AST / BUN / CRE / Ca / Cl / DBIL / GLC / IP / K / LDH / Na / PL / RALB / TBIL / TC / TG / TP / gamma-GTP: tissue Plasma

`CN1C(=O)OC(C)(C)C1=O` [TRIMETHADIONE] was tested, and the TERMINAL_BW (9 h) was 201.4 g, the APTT (9 h) was 18.8 s and the Bas (9 h) was 0%. The Eos (9 h) was 1%, the Fbg (9 h) was 285.2 mg/dL and the Hb (9 h) was 13.2 g/dL. It also gave a Ht (9 h) of 39.8%, a Lym (9 h) of 78.8% and an MCH (9 h) of 21.5 pg. For the same compound, the MCHC (9 h) was 33.2%, the MCV (9 h) was 64.6 fL and the Mono (9 h) was 2%. For the same compound, the Neu (9 h) was 17.6%, the PT (9 h) was 13.6 s and the Plat (9 h) was 142.2 x10_4/uL. The RBC (9 h) was 615.4 x10_4/ul, the Ret (9 h) was 8.1% and the WBC (9 h) was 80.8 x10_2/uL. The KIDNEY_L (9 h) was 0.9 g, the KIDNEY_R (9 h) was 0.9 g and the KIDNEY_TOTAL (9 h) was 1.8 g. It also gave an LIVER (9 h) of 7.5 g, an A/G (9 h) of 0.9 and an ALP (9 h) of 1414 IU/L. The ALT (9 h) was 34.8 IU/L, the AST (9 h) was 74.6 IU/L and the BUN (9 h) was 8.4 mg/dL. It also gave a CRE (9 h) of 0.2 mg/dL, a Ca (9 h) of 10.4 mg/dL and a Cl (9 h) of 108.6 meq/L. It also gave a DBIL (9 h) of 0.002 mg/dL, a GLC (9 h) of 158.8 mg/dL and an IP (9 h) of 9.7 mg/dL. The K (9 h) was 3.9 meq/L, the LDH (9 h) was 99.8 IU/L and the Na (9 h) was 141.2 meq/L. The PL (9 h) was 143.2 mg/dL, the RALB (9 h) was 2.5 g/dL and the TBIL (9 h) was 0.064 mg/dL. The TC (9 h) was 84.6 mg/dL, the TG (9 h) was 33.2 mg/dL and the TP (9 h) was 5.3 g/dL. It also gave a gamma-GTP (9 h) of 1.2 IU/L, a TERMINAL_BW (24 h) of 222.7 g and an APTT (24 h) of 19.1 s. The Bas (24 h) was 0%, the Eos (24 h) was 1% and the Fbg (24 h) was 267 mg/dL. For the same compound, the Hb (24 h) was 13.4 g/dL, the Ht (24 h) was 40.3% and the Lym (24 h) was 76.4%. It also gave an MCH (24 h) of 21.6 pg, an MCHC (24 h) of 33.2% and an MCV (24 h) of 64.9 fL. For the same compound, the Mono (24 h) was 2.8%, the Neu (24 h) was 19.4% and the PT (24 h) was 13.4 s. It also gave a Plat (24 h) of 118.6 x10_4/uL, an RBC (24 h) of 620 x10_4/ul and a Ret (24 h) of 7.3%. The WBC (24 h) was 100.7 x10_2/uL, the KIDNEY_L (24 h) was 1 g and the KIDNEY_R (24 h) was 1 g. For the same compound, the KIDNEY_TOTAL (24 h) was 1.9 g, the LIVER (24 h) was 10 g and the A/G (24 h) was 0.8. It also gave an ALP (24 h) of 2138 IU/L, an ALT (24 h) of 47.4 IU/L and an AST (24 h) of 77.8 IU/L. It also gave a BUN (24 h) of 14.6 mg/dL, a CRE (24 h) of 0.2 mg/dL and a Ca (24 h) of 10.8 mg/dL. For the same compound, the Cl (24 h) was 105 meq/L, the DBIL (24 h) was 0.008 mg/dL and the GLC (24 h) was 173.2 mg/dL. It also gave an IP (24 h) of 7.4 mg/dL, a K (24 h) of 4 meq/L and an LDH (24 h) of 112.2 IU/L. For the same compound, the Na (24 h) was 142.6 meq/L, the PL (24 h) was 151.4 mg/dL and the RALB (24 h) was 2.6 g/dL. The TBIL (24 h) was 0.05 mg/dL, the TC (24 h) was 77.6 mg/dL and the TG (24 h) was 99.4 mg/dL. The TP (24 h) was 5.7 g/dL and the gamma-GTP (24 h) was 1.2 IU/L.
